Results from PubChem BioAssay AID274 (DTP/NCI, 2004).
Several values for one entry are separate records, joined by “and”; a condition that tells them apart may be missing. Identical values can stand only once. Inconclusive results and toxic doses are left out.

System: BDF1 mice, Lewis lung carcinoma iv, survival T/C
Assay: NCI In Vivo Anticancer Drug Screen. Data for tumor model Lewis Lung Carcinoma (intravenous) in B6D2F1 (BDF1) mice
Conditions: endpoint: median survival time, higher = longer survival
Procedure: The antitumor activity of compounds was measured in mice bearing transplantable tumors. Survival or tumor size were measured and the results are expressed as the measurement made in the treated group (T) divided by the measurement made in the vehicle treated control group (C). The tumor model used in this assay is Lewis Lung Carcinoma (intravenous) in B6D2F1 (BDF1) mice

[1] = dose: 0.78 mg/kg/injection, schedule: Q01DX009 (ip), vehicle: saline
[2] = dose: 1.56 mg/kg/injection, schedule: Q01DX009 (ip), vehicle: saline
[3] = dose: 6.25 mg/kg/injection, schedule: Q01DX009 (ip), vehicle: saline
[4] = dose: 12.5 mg/kg/injection, schedule: Q01DX009 (ip), vehicle: saline
[5] = dose: 0.5 mg/kg/injection, schedule: Q01DX009 (ip), vehicle: saline
[6] = dose: 1.0 mg/kg/injection, schedule: Q01DX009 (ip), vehicle: saline
[7] = dose: 2.0 mg/kg/injection, schedule: Q01DX009 (ip), vehicle: saline
[8] = dose: 4.0 mg/kg/injection, schedule: Q01DX009 (ip), vehicle: saline
[9] = dose: 25.0 mg/kg/injection, schedule: Q01DX009 (ip), vehicle: saline
[10] = dose: 50.0 mg/kg/injection, schedule: Q01DX009 (ip), vehicle: saline
[11] = dose: 100.0 mg/kg/injection, schedule: Q01DX009 (ip), vehicle: saline
[12] = dose: 200.0 mg/kg/injection, schedule: Q01DX009 (ip), vehicle: saline
[13] = dose: 0.25 mg/kg/injection, schedule: Q01DX009 (ip), vehicle: saline
[14] = dose: 12.5 mg/kg/injection, schedule: Q01DX009 (ip), vehicle: saline with Tween-80
[15] = dose: 25.0 mg/kg/injection, schedule: Q01DX009 (ip), vehicle: saline with Tween-80
[16] = dose: 50.0 mg/kg/injection, schedule: Q01DX009 (ip), vehicle: saline with Tween-80
[17] = dose: 100.0 mg/kg/injection, schedule: Q01DX009 (ip), vehicle: saline with Tween-80
[18] = dose: 200.0 mg/kg/injection, schedule: Q01DX009 (ip), vehicle: saline with Tween-80
[19] = dose: 400.0 mg/kg/injection, schedule: Q01DX009 (ip), vehicle: saline with Tween-80
[20] = dose: 400.0 mg/kg/injection, schedule: Q01DX009 (ip), vehicle: saline
[21] = dose: 25.0 mg/kg/injection, schedule: Q01DX009 (ip), vehicle: water
[22] = dose: 50.0 mg/kg/injection, schedule: Q01DX009 (ip), vehicle: water
[23] = dose: 100.0 mg/kg/injection, schedule: Q01DX009 (ip), vehicle: water
[24] = dose: 6.25 mg/kg/injection, schedule: Q01DX009 (ip), vehicle: saline with Tween-80

C=C1C(=O)C2=CC1CCC(=O)C1(C)CCC(OC(C)=O)C(C)(C)C1CC2O (stereo unspecified)
T/C (dose: 3.75 mg/kg/injection, schedule: Q01DX009 (ip), vehicle: Klucel (hydroxypropylcellulose) (HPC)): 105 % of control | T/C (dose: 7.5 mg/kg/injection, schedule: Q01DX009 (ip), vehicle: Klucel (hydroxypropylcellulose) (HPC)): 100 % of control | T/C (dose: 15.0 mg/kg/injection, schedule: Q01DX009 (ip), vehicle: Klucel (hydroxypropylcellulose) (HPC)): 100 % of control | T/C (dose: 30.0 mg/kg/injection, schedule: Q01DX009 (ip), vehicle: Klucel (hydroxypropylcellulose) (HPC)): 104 % of control | T/C (dose: 60.0 mg/kg/injection, schedule: Q01DX009 (ip), vehicle: Klucel (hydroxypropylcellulose) (HPC)): 93 % of control

OCCN1CCN(CC/C=C2/c3ccccc3Sc3ccc(Cl)cc32)CC1
T/C [1]: 102 % of control | T/C [2]: 111 % of control | T/C (dose: 3.12 mg/kg/injection, schedule: Q01DX009 (ip), vehicle: saline): 98 % of control | T/C [3]: 101 % of control | T/C [4]: 100 % of control

COC1C(CO)OC(n2cnc3c(=S)nc(N)[nH]c32)C1O (stereo unspecified)
T/C (dose: 50.0 mg/kg/injection, schedule: Q01DX009 (ip), vehicle: Klucel (hydroxypropylcellulose) (HPC)): 97 % of control | T/C (dose: 100.0 mg/kg/injection, schedule: Q01DX009 (ip), vehicle: Klucel (hydroxypropylcellulose) (HPC)): 108 % of control

C=C1C(=O)OCC1(C(=O)OCC)C(=O)OCC
T/C (dose: 4.0 mg/kg/injection, schedule: Q01DX009 (ip), vehicle: saline with Tween-80): 114 % of control | T/C (dose: 8.0 mg/kg/injection, schedule: Q01DX009 (ip), vehicle: saline with Tween-80): 120 % of control

Nc1ncnc2c1ncn2C1C=C(CO)C(O)C1O (stereo unspecified)
T/C [5]: 102 % of control | T/C [6]: 98 % of control | T/C [7]: 88 % of control | T/C [8]: 95 % of control

CCN(CC)CCOCCO
T/C [9]: 110 % of control | T/C [10]: 99 % of control | T/C [11]: 101 % of control | T/C [12]: 99 % of control

N/C(=N\O)c1cn(C2OC(CO)C(O)C2O)c2ncnc(N)c12 (stereo unspecified)
T/C [6]: 91 % of control | T/C [7]: 88 % of control | T/C [8]: 98 % of control

N[C@@H](Cc1ccc(N(CCCl)CCCl)cc1)C(=O)O
T/C [13]: 92 % of control | T/C [5]: 99 % of control and 102 % of control and 103 % of control | T/C [6]: 104 % of control and 105 % of control and 109 % of control | T/C (dose: 1.95 mg/kg/injection, schedule: Q04DX003 (ip), vehicle: saline): 92 % of control | T/C [7]: 96 % of control and 110 % of control and 117 % of control | T/C (dose: 3.24 mg/kg/injection, schedule: Q04DX003 (ip), vehicle: saline): 98 % of control | T/C (dose: 3.4 mg/kg/injection, schedule: Q04DX003 (ip), vehicle: saline): 100 % of control | T/C [8]: 112 % of control and 114 % of control | T/C (dose: 4.9 mg/kg/injection, schedule: Q04DX003 (ip), vehicle: saline): 106 % of control | T/C (dose: 5.4 mg/kg/injection, schedule: Q04DX003 (ip), vehicle: saline): 100 % of control | T/C (dose: 8.0 mg/kg/injection, schedule: Q01DX009 (ip), vehicle: saline): 113 % of control | T/C (dose: 9.0 mg/kg/injection, schedule: Q04DX003 (ip), vehicle: saline): 154 % of control | T/C (dose: 14.3 mg/kg/injection, schedule: Q04DX003 (ip), vehicle: saline): 122 % of control

O=[N+]([O-])c1cc([N+](=O)[O-])c(Nn2c3ccccc3c3ccccc32)c([N+](=O)[O-])c1
T/C [14]: 114 % of control | T/C [15]: 105 % of control | T/C [16]: 91 % of control

O=C(CCl)N1c2ccccc2Oc2cc3ccccc3cc21
T/C [17]: 107 % of control | T/C [18]: 116 % of control | T/C [19]: 111 % of control

CC(=O)OCC12C3CC(=O)OC1C(OC(=O)C=C(C)C)C1C(C)=CC(=O)C(OC(C)=O)C1(C)C2C(=O)C(OC(C)=O)C3C (stereo unspecified)
T/C [13]: 86 % of control | T/C [5]: 107 % of control | T/C [6]: 91 % of control | T/C [7]: 102 % of control | T/C [8]: 113 % of control

O=C(C1CO1)C(Cl)(Cl)Cl (stereo unspecified)
T/C [4]: 98 % of control | T/C [9]: 102 % of control

O=P(O)(NCCCl)NCCCl
T/C (dose: 25.0 mg/kg/injection, schedule: Q01DX001 (ip), vehicle: saline with Tween-80): 111 % of control | T/C (dose: 50.0 mg/kg/injection, schedule: Q01DX001 (ip), vehicle: saline with Tween-80): 123 % of control | T/C (dose: 100.0 mg/kg/injection, schedule: Q01DX001 (ip), vehicle: saline with Tween-80): 208 % of control

[Cl][Hg][Cl]
T/C (dose: 0.2 mg/kg/injection, schedule: Q01DX009 (ip), vehicle: saline): 95 % of control | T/C (dose: 0.4 mg/kg/injection, schedule: Q01DX009 (ip), vehicle: saline): 99 % of control | T/C [1]: 93 % of control | T/C [2]: 93 % of control

OCCCN1CCCCC1CO (stereo unspecified)
T/C [4]: 100 % of control and 107 % of control | T/C [9]: 98 % of control and 110 % of control | T/C [10]: 97 % of control and 90 % of control | T/C [11]: 91 % of control and 106 % of control | T/C [12]: 100 % of control and 107 % of control | T/C [20]: 95 % of control and 110 % of control

COc1cc2ccnc(C=O)c2cc1OC
T/C [15]: 107 % of control | T/C [16]: 102 % of control | T/C [17]: 102 % of control | T/C [18]: 108 % of control

CC(=O)N(C)O
T/C [15]: 102 % of control | T/C [16]: 90 % of control | T/C [17]: 98 % of control | T/C [18]: 95 % of control

C/C=C/C1=CC(=O)C(O)C1O (stereo unspecified)
T/C [21]: 103 % of control | T/C [22]: 99 % of control | T/C [23]: 101 % of control

Cc1cc(N(CC(C)Br)CC(C)Br)ccc1N=Nc1ccccc1C(=O)O (stereo unspecified)
T/C [24]: 117 % of control | T/C [14]: 114 % of control

COc1cc(C(C)(C)C)cc(OC)c1C(O)(c1c(OC)cc(C(C)(C)C)cc1OC)c1c(OC)cc(C(C)(C)C)cc1OC
T/C [24]: 99 % of control and 106 % of control | T/C [14]: 98 % of control and 99 % of control | T/C [15]: 97 % of control and 102 % of control | T/C [16]: 99 % of control

COc1ccc(C(=O)c2no[n+]([O-])c2C(=O)c2ccc(OC)cc2)cc1
T/C [14]: 104 % of control | T/C [15]: 102 % of control | T/C [16]: 95 % of control | T/C [17]: 98 % of control | T/C [18]: 100 % of control | T/C [19]: 111 % of control

Nc1ncnc2c1ncn2C1OC(COP(=O)(O)O)C(O)C1O (stereo unspecified)
T/C (dose: 12.5 mg/kg/injection, schedule: Q01DX009 (ip), vehicle: water): 104 % of control | T/C [21]: 112 % of control | T/C [22]: 100 % of control | T/C [11]: 97 % of control | T/C [23]: 103 % of control | T/C [12]: 118 % of control | T/C (dose: 200.0 mg/kg/injection, schedule: Q01DX009 (ip), vehicle: water): 100 % of control | T/C [20]: 96 % of control | T/C (dose: 800.0 mg/kg/injection, schedule: Q01DX009 (ip), vehicle: saline): 108 % of control

C[C@]12CC[C@@H]3c4ccc(OC(=O)Cc5ccc(N(CCCl)CCCl)cc5)cc4CC[C@H]3[C@@H]1CC[C@@H]2OC(=O)Cc1ccc(N(CCCl)CCCl)cc1
T/C [14]: 97 % of control | T/C [15]: 104 % of control | T/C [16]: 99 % of control | T/C [17]: 91 % of control | T/C [18]: 98 % of control | T/C [19]: 100 % of control

CC1(C)COCN1COCCOCN1COCC1(C)C
T/C [3]: 114 % of control | T/C [4]: 97 % of control | T/C [9]: 106 % of control | T/C [10]: 122 % of control | T/C [11]: 95 % of control

COC(=O)c1cc2cc3c(c(O)c2c(=O)o1)OC1(Cc2c(O)c4c(c(O)c2O1)C(=O)C(OC)CC4=O)CC3O (stereo unspecified)
T/C (dose: 3.13 mg/kg/injection, schedule: Q01DX009 (ip), vehicle: saline with Tween-80): 102 % of control | T/C [24]: 110 % of control | T/C [14]: 122 % of control | T/C [15]: 120 % of control

Cc1ccc(Cl)c2ccccc12
T/C [16]: 98 % of control | T/C [17]: 98 % of control | T/C [18]: 107 % of control

N=c1ccn2c(n1)OC1C(O)C(CO)OC12 (stereo unspecified)
T/C [9]: 104 % of control | T/C (dose: 37.5 mg/kg/injection, schedule: Q01DX009 (ip), vehicle: saline): 108 % of control | T/C (dose: 75.0 mg/kg/injection, schedule: Q01DX009 (ip), vehicle: saline): 106 % of control | T/C [11]: 112 % of control | T/C (dose: 150.0 mg/kg/injection, schedule: Q01DX009 (ip), vehicle: saline): 119 % of control | T/C (dose: 300.0 mg/kg/injection, schedule: Q01DX009 (ip), vehicle: saline): 104 % of control | T/C (dose: 600.0 mg/kg/injection, schedule: Q01DX009 (ip), vehicle: saline): 92 % of control
